Source: paper PMC9820279 (International Journal of Molecular Sciences, 2022)
Where two headings read alike, the source gives them in different places.

Assays:
[1] = cited from earlier work
[2] = design: method as in PMID 35782945, PMID 34869538, PMID 34209864, PMID 35498984, PMID 34923590; conditions: previously studied by the group; cited from earlier work
BChE = conditions: previously studied by the group; cited from earlier work
AChE = conditions: previously studied by the group; cited from earlier work
LOX = test system: LOX; design: method as in PMID 35782945, PMID 34869538, PMID 34209864, PMID 35498984, PMID 34923590; conditions: previously studied by the group; cited from earlier work
[3] = matrix ASFE extract 24 µg/mL, 2 h incubation, n.d = not detected in lower compartment
[4] = matrix ASFE extract 24 µg/mL, 4 h incubation, n.d = not detected in lower compartment

Procedure for HBMEC monolayer: The cell line HBMEC was used as a simplified in vitro model of the BBB endothelium. […] Endothelial cell cultures were maintained at 37 °C in a humid atmosphere enriched with 5% CO2. In our studies, HBMEC were used between passage 25 and 29. For experiments, HBMECs were seeded using a volume of 200 µL at a density of 8 × 10^4 cells/mL in rat tail collagen-I (100 µg/mL) coated 96-well plates (for viability assay) or 500 µL at a density of 1.6 × 10^5 cells/mL in rat tail collagen-I (100 µg/mL) coated semi-permeable membranes in transwell inserts (0.4 µm pore, Corning Costar Corp., USA; for BBB integrity and transport assays) for 12-well plates. The incubation timepoints were assay dependent.
For the transendothelial transport assays, HBMEC were seeded on transwell inserts as described above and are schematically depicted in Figure 1a. After seeding, the media were changed every two days. Four days post-seeding, the HBMEC monolayer was formed, and the transport studies were performed. […] Vupper and Vlower is the upper and lower compartment volume (0.5 and 1.5 mL, respectively). The culture inserts were used for the subsequent integrity permeability studies.

In the case of `C[C@@H]1CCCC2=CC[C@@H]3[C@@H](C3(C)C)[C@]21C` [(-)-Aristolene], the “Crossing of the PAMPA-BBB system” value ([1]; PLE100 extract compounds) is given as “could not cross”, the “Te % (SEM) 2 h” value (HBMEC monolayer) is given as 39.7 (0.4) % and the “Te % (SEM) 4 h” value (HBMEC monolayer) is given as 71.3 (1.6) %. The “Detection in basolateral compartment (brain side) of HBMEC-BBB model” value (“Detection in basolateral compartment” for short) (HBMEC monolayer; PLE100 extract) was “detected in the basolateral compartment”.
For `O=C1c2c(O)cc(O)cc2O[C@H](c2ccc(O)cc2)[C@H]1O` [Aromadendrin], the “Detection in the lower well of the PAMPA-BBB model” value (“Detection in the lower well” below) ([1]; ASFE extract compounds) is listed as “not detected in the lower well”, the “Detection / transport to lower compartment (brain side) of HBMEC-BBB model” value (HBMEC monolayer; ASFE extract) is listed as “could reach the “brain side”” and the “Te % (SEM) 2 h” value (HBMEC monolayer; [3]) is listed as 76.2 (0.8) %. For the same compound, the “Te % (SEM) 4 h” value (HBMEC monolayer; [4]) was 78.7 (0.7) %.
In the case of `O=C1O[C@H]([C@@H](O)CO)C(O)=C1O` [Ascorbic acid], the “RNS IC50” value [2] is listed as 1100.9 µg/mL.
For `O=C(/C=C/c1ccc(O)c(O)c1)O[C@@H](C(=O)O)[C@@H](O)C(=O)O` [Caftaric acid], the “Detection in the lower well” value ([1]; ASFE extract compounds) is listed as “not detected in the lower well”, the “Detection / transport to lower compartment (brain side) of HBMEC-BBB model” value (HBMEC monolayer) is listed as “could reach the “brain side”” and the “Te % (SEM) 2 h” value (HBMEC monolayer; human, 2 h, 24 µg/mL) is listed as 46.3 (3.6) %. The “Te % (SEM) 4 h” value (HBMEC monolayer; human, 4 h, 24 µg/mL) was 87.6 (3.5) %.
For `O=c1oc2c(O)c(O)cc3c(=O)oc4c(O)c(O)cc1c4c23` [Ellagic acid], the “Detection in the lower well” value ([1]; ASFE extract compounds) is listed as “not detected in the lower well”, the “Detection / transport to lower compartment (brain side) of HBMEC-BBB model” value (HBMEC monolayer) is listed as “could reach the “brain side”” and the “Te % (SEM) 2 h” value (HBMEC monolayer; human, 2 h, 24 µg/mL) is listed as 42.4 (1.6) %. For the same compound, the “Te % (SEM) 4 h” value (HBMEC monolayer; human, 4 h, 24 µg/mL) was 85.5 (2.5) %.
In the case of `COc1cc(/C=C/C(=O)O)ccc1O` [Ferulic acid], the “Detection in the lower well” value ([1]; ASFE extract compounds) is given as “not detected in the lower well”, the “Detection / transport to lower compartment (brain side) of HBMEC-BBB model” value (HBMEC monolayer; ASFE extract) is given as “could reach the “brain side”” and the “Te % (SEM) 4 h” value (HBMEC monolayer; [4]) is given as 9.1 (0.3) %.
For `COc1ccc2c3c1O[C@H]1C[C@@H](O)C=C[C@@]31CCN(C)C2` [Galantamine], the “BChE IC50” value (BChE) is given as 2.36 µg/mL and the “AChE IC50” value (AChE) is given as 0.40 µg/mL.
In the case of `CC(CC(=O)C[C@@H](C)[C@H]1C[C@H](O)[C@@]2(C)C3=C(C(=O)C[C@]12C)[C@@]1(C)CC[C@H](O)C(C)(C)[C@@H]1CC3)C(=O)O` (stereo partly shown) [Ganolucidic acid B], the “Detection in the lower well” value ([1]; ASFE extract compounds) is listed as “not detected in the lower well”, the “Detection / transport to lower compartment (brain side) of HBMEC-BBB model” value (HBMEC monolayer; ASFE extract) is listed as “could reach the “brain side”” and the “Te % (SEM) 2 h” value (HBMEC monolayer; [3]) is listed as 28.4 (1.1) %. The “Te % (SEM) 4 h” value (HBMEC monolayer; [4]) was 28.6 (1.5) %.
In the case of `O=c1c(O[C@@H]2O[C@H](CO)[C@@H](O)[C@H](O)[C@H]2O)c(-c2ccc(O)c(O)c2)oc2cc(O)cc(O)c12` [Isoquercitrin], the “Crossing of the in vitro PAMPA-BBB” value ([1]; PAMPA) is listed as “not capable of crossing”, the “Te % (SEM) 2 h” value (HBMEC monolayer; human, 2 h, 30 µg/mL) is listed as 6.0 (0.2) % and the “Te % (SEM) 4 h” value (HBMEC monolayer; human, 4 h, 30 µg/mL) is listed as 16.3 (1.3) %.
For `C=C(C)[C@@H]1CC[C@]2(C)CC[C@]3(C)[C@H](CC[C@@H]4[C@@]5(C)CC[C@H](OC(C)=O)C(C)(C)[C@@H]5CC[C@]43C)[C@@H]12` [Lupeol acetate], the “Detection in the PAMPA-BBB model” value ([1]; OL-SS extract compounds) is given as “not detected” and the “Detection in basolateral compartment” value (HBMEC monolayer; OL-SS extract) is given as “not detected”.
For `CC(C)=CCC/C(C)=C\CO` [Nerol], the “Crossing of the PAMPA-BBB system” value ([1]; PLE100 extract compounds) is given as “could not cross”, the “Detection in basolateral compartment” value (HBMEC monolayer; PLE100 extract) is given as “detected in the basolateral compartment” and the “Te % (SEM) 2 h” value (HBMEC monolayer; human) is given as 26.8 (0.2) %. The “Te % (SEM) 4 h” value (HBMEC monolayer; human) was 41.5 (3.1) %.
In the case of `Oc1cc(O)c2c(c1)O[C@H](c1ccc(O)c(O)c1)[C@H](O)[C@H]2c1c(O)cc(O)c2c1O[C@H](c1ccc(O)c(O)c1)[C@H](O)C2` [Procyanidin B2], the “Detection in the lower well” value ([1]; PAMPA) is listed as “not detected in the lower well”, the “Detection / transport to lower compartment (brain side) of HBMEC-BBB model” value (HBMEC monolayer; ASFE extract) is listed as “could reach the “brain side”” and the “Te % (SEM) 2 h” value (HBMEC monolayer; [3]) is listed as 56.8 (0.0) %. For the same compound, the “Te % (SEM) 4 h” value (HBMEC monolayer; [4]) was 61.9 (2.6) %.
For `Oc1cccc(O)c1O` [Pyrogallol], the “Detection in the lower well” value ([1]; ASFE extract compounds) is listed as “not detected in the lower well”, the “Detection / transport to lower compartment (brain side) of HBMEC-BBB model” value (HBMEC monolayer) is listed as “could reach the “brain side”” and the “Te % (SEM) 2 h” value (HBMEC monolayer; human, 2 h, 24 µg/mL) is listed as 37.6 (2.6) %. For the same compound, the “Te % (SEM) 4 h” value (HBMEC monolayer; human, 4 h, 24 µg/mL) was 80.5 (1.1) %.
In the case of `O=c1c(O)c(-c2ccc(O)c(O)c2)oc2cc(O)cc(O)c12` [Quercetin], the “LOX IC50” value (LOX) is given as 125.7 µg/mL.
For `COc1cc(/C=C/C(=O)O)cc(OC)c1O` [Sinapic acid], the “Detection in the lower well” value ([1]; ASFE extract compounds) is listed as “not detected in the lower well”, the “Crossing of the in vitro PAMPA-BBB” value ([1]; T33 extract compounds) is listed as “not capable of crossing” and the “Te % (SEM) 2 h” value (HBMEC monolayer) is listed as 35.6 (2.0)/n.d %. The “Te % (SEM) 4 h” value (HBMEC monolayer) was 44.4 (3.2)/18.6 (0.5) %, the “Detection / transport to lower compartment (brain side) of HBMEC-BBB model” value (HBMEC monolayer; ASFE extract) was “could reach the “brain side”” and the “Te % (SEM) 4 h” value (HBMEC monolayer; [4]) was 44.4 (3.2)/18.6 (0.5) %.
In the case of `CC(C)=CCC/C(C)=C/CC/C(C)=C/CC/C=C(\C)CC/C=C(\C)CCC=C(C)C` [Squalene], the “Crossing of the PAMPA-BBB system” value ([1]; PLE100 extract compounds) is given as “could not cross”, the “Detection in basolateral compartment” value (HBMEC monolayer; PLE100 extract) is given as “detected in the basolateral compartment” and the “Te % (SEM) 2 h” value (HBMEC monolayer; matrix OL-SS extract 40 µg/mL, 2 h incubation, n.d = not detected in lower compartment) is given as 24.1 (1.4) %. The “Te % (SEM) 4 h” value (HBMEC monolayer; matrix OL-SS extract 40 µg/mL, 4 h incubation, n.d = not detected in lower compartment) was 33.2 (0.9) %, the “Te % (SEM) 2 h” value (HBMEC monolayer; matrix PLE100 extract 15 µg/mL, 2 h incubation, n.d = not detected in lower compartment) was 19.1 (1.4) % and the “Te % (SEM) 4 h” value (HBMEC monolayer; matrix PLE100 extract 15 µg/mL, 4 h incubation, n.d = not detected in lower compartment) was 47.6 (1.5) %.
In the case of `Oc1ccc(/C=C/c2cc(O)cc3c2[C@@H](c2cc(O)cc(O)c2)[C@H](c2ccc(O)cc2)O3)cc1` [e-viniferin], the “Detection in the lower well” value ([1]; ASFE extract compounds) is listed as “not detected in the lower well”, the “Detection / transport to lower compartment (brain side) of HBMEC-BBB model” value (HBMEC monolayer; ASFE extract) is listed as “could reach the “brain side”” and the “Te % (SEM) 2 h” value (HBMEC monolayer; [3]) is listed as 39.2 (2.2) %. The “Te % (SEM) 4 h” value (HBMEC monolayer; [4]) was 45.9 (3.0) %.
In the case of `C[C@H]1[C@H](C)CC[C@]2(CO)CC[C@]3(C)C(=CC[C@@H]4[C@@]5(C)CC[C@H](O)C(C)(C)[C@@H]5CC[C@]43C)[C@H]12` [uvaol], the “Detection in the PAMPA-BBB model” value ([1]; OL-SS extract compounds) is listed as “detected in the acceptor well” and the “Detection in basolateral compartment” value (HBMEC monolayer; OL-SS extract) is listed as “detected”.
In the case of `C[C@H]1[C@H](C)CC[C@]2(C)CC[C@]3(C)C(=CC[C@@H]4[C@@]5(C)CC[C@H](O)C(C)(C)[C@@H]5CC[C@]43C)[C@H]12` [α-Amyrin], the “Detection in the PAMPA-BBB model” value ([1]; OL-SS extract compounds) is listed as “not detected” and the “Detection in basolateral compartment” value (HBMEC monolayer; OL-SS extract) is listed as “not detected”.
For `CC1(C)CC[C@]2(C)CC[C@]3(C)C(=CC[C@@H]4[C@@]5(C)CC[C@H](O)C(C)(C)[C@@H]5CC[C@]43C)[C@@H]2C1` [β-Amyrin], the “Crossing of the PAMPA-BBB system” value ([1]; PAMPA) is listed as “not detected”, the “Detection in the PAMPA-BBB model” value ([1]; PAMPA) is listed as “not detected” and the “Detection in basolateral compartment” value (HBMEC monolayer; OL-SS extract) is listed as “not detected”. For the same compound, the “Detection in basolateral compartment” value (HBMEC monolayer; PLE100 extract) was “not detected”.
With γ-silenene the “Te % (SEM) 2 h” value (HBMEC monolayer) was 52.8 (3.8) % and the “Te % (SEM) 4 h” value (HBMEC monolayer) was 53.8 (2.8) %.
